Here are results for 50 compounds from publication PMC11995724, “Antibiotic target discovery by integrated phenotypic and activity-based profiling of electrophilic fragments” (Cell chemical biology, 2025).

Where a name gives a salt, the structure may show the parent alone.

This data set is described as follows: in vitro. The conditions noted are these: human, hek293t cells.
As a reminder, the viability is a read-out of living cells in per cent, often relative to untreated cells. On to `CCOc1ccccc1NC(=O)C(C)Cl` (centres unmarked) [6-M10, 2-chloro-N-(2-ethoxyphenyl)propanamide], for which the viability at 48 h, 25 µM came out at 93.2%.

Regarding `C=CC(=O)N1CCCCC(S(C)(=O)=O)C1` (centres unmarked) [2-E17, 1-(3-methanesulfonylazepan-1-yl)prop-2-en-1-one], the viability at 48 h, 25 µM came out at 110%.

`O=C(CCl)N1N=C(c2ccccc2)CC1c1ccc2nccnc2c1` (centres unmarked) [4-A22, 2-chloro-1-[3-phenyl-5-(quinoxalin-6-yl)-4,5-dihydro-1H-pyrazol-1-yl]ethan-1-one]: the viability at 48 h, 25 µM was found to be 0.127%.

`CC(Cl)C(=O)N1CCCC1c1nc(N(C)C)no1` (centres unmarked) [7-F19, 2-chloro-1-{2-[3-(dimethylamino)-1,2,4-oxadiazol-5-yl]pyrrolidin-1-yl}propan-1-one]: the viability at 48 h, 25 µM was found to be 77.6%.

For `CN1C(=O)[C@H](NC(=O)CCl)COc2ccccc21` [7-D04, 2-chloro-N-[(3R)-5-methyl-4-oxo-2,3,4,5-tetrahydro-1,5-benzoxazepin-3-yl]acetamide], the viability at 48 h, 25 µM amounted to 2.02%.

As to `Cc1cccc(N2C(=O)C=CC2=O)c1C` [10-H05, 1-(2,3-dimethylphenyl)-2,5-dihydro-1H-pyrrole-2,5-dione], the viability at 48 h, 25 µM was 94.3%.

For the compound `O=C1C=CC(=O)N1C1CNC1` [10-O19, 1-(azetidin-3-yl)-2,5-dihydro-1H-pyrrole-2,5-dione hydrochloride], the viability at 48 h, 25 µM was 83.3%.

On to `CN(C)S(=O)(=O)c1ccc(Cl)c(NC(=O)CCl)c1` [6-H12, 2-chloro-N-[2-chloro-5-(dimethylsulfamoyl)phenyl]acetamide], for which the viability at 48 h, 25 µM amounted to 0.99%.

As to `C=CC(=O)Nc1cnn(CCF)c1` [1-E05, N-[1-(2-fluoroethyl)-1H-pyrazol-4-yl]prop-2-enamide], the viability at 48 h, 25 µM came out at 78.3%.

As for `Cc1c(C=C(C#N)C(=O)Nc2ccccc2F)cc(C#N)n1C` [8-A13, 2-cyano-3-(5-cyano-1,2-dimethyl-1H-pyrrol-3-yl)-N-(2-fluorophenyl)prop-2-enamide], the viability at 48 h, 25 µM turned out to be 83.9%.

As for `N#Cc1c(NC(=O)CCl)oc(-c2cccs2)c1-c1cccs1` [6-I09, 2-chloro-N-[3-cyano-4,5-bis(thiophen-2-yl)furan-2-yl]acetamide], the viability at 48 h, 25 µM was 28.5%.

Consider `O=C(CCl)N(Cc1ccccc1)Cc1ccc(F)cc1` [5-I06, N-benzyl-2-chloro-N-[(4-fluorophenyl)methyl]acetamide], for which the viability at 48 h, 25 µM was 0.621%.

Consider `COc1ccccc1N1C(=O)C=CC1=O` [10-O10, 1-(2-methoxyphenyl)-2,5-dihydro-1H-pyrrole-2,5-dione], for which the viability at 48 h, 25 µM came to 57.5%.

On to `CC(Cl)C(=O)NCC1COc2ccccc2O1` (centres unmarked) [4-F13, 2-chloro-N-[(2,3-dihydro-1,4-benzodioxin-2-yl)methyl]propanamide], for which the viability at 48 h, 25 µM was 91.4%.

In the case of `C=CC(=O)NC[C@@H]1C[C@H]1C1CCCCC1` [1-O19, N-{[(1R,2S)-2-cyclohexylcyclopropyl]methyl}prop-2-enamide], the viability at 48 h, 25 µM was 106%.

With `C=CC(=O)NCC(C)(C)C1CCCCC1` [1-E21, N-(2-cyclohexyl-2-methylpropyl)prop-2-enamide], the viability at 48 h, 25 µM was 75.5%.

`C=CC(=O)NCc1nonc1C` [2-H07, N-[(4-methyl-1,2,5-oxadiazol-3-yl)methyl]prop-2-enamide]: the viability at 48 h, 25 µM amounted to 57.6%.

Regarding `CC(Cl)C(=O)N1CCN(c2oc(-c3ccco3)nc2C#N)CC1` (centres unmarked) [7-D13, 5-[4-(2-chloropropanoyl)piperazin-1-yl]-2-(furan-2-yl)-1,3-oxazole-4-carbonitrile], the viability at 48 h, 25 µM worked out at 85%.

As for `CN(CCOc1ccccc1F)C(=O)CCl` [6-C03, 2-chloro-N-[2-(2-fluorophenoxy)ethyl]-N-methylacetamide], the viability at 48 h, 25 µM came out at 1.83%.

Regarding `O=C(CCl)NCCSc1ccc(Cl)cc1` [4-H17, 2-chloro-N-{2-[(4-chlorophenyl)sulfanyl]ethyl}acetamide], the viability at 48 h, 25 µM worked out at 0.813%.

For the compound `CN(C)c1ccc(C=C(C#N)C(N)=O)cc1` [9-O04, 2-cyano-3-[4-(dimethylamino)phenyl]prop-2-enamide], the viability at 48 h, 25 µM was 118%.

In the case of `COc1ccc(CCN2C(=O)C=CC2=O)cc1OC` [10-H07, 1-[2-(3,4-dimethoxyphenyl)ethyl]-2,5-dihydro-1H-pyrrole-2,5-dione], the viability at 48 h, 25 µM was 101%.

`CCc1nsc(N2CCN(C(=O)C(C#N)=Cc3ccco3)CC2)n1` [9-K05, 2-[4-(3-ethyl-1,2,4-thiadiazol-5-yl)piperazine-1-carbonyl]-3-(furan-2-yl)prop-2-enenitrile]: the viability at 48 h, 25 µM is 121%.

`C=CC(=O)Nc1ccc(C(=O)N2CCC[C@@H]2C(=O)OC)cc1` [2-E21, methyl (2R)-1-[4-(prop-2-enamido)benzoyl]pyrrolidine-2-carboxylate]: the viability at 48 h, 25 µM amounted to 104%.

For the compound `Cc1ccc(C2CC(c3cccs3)=NN2C(=O)CCl)cc1` (centres unmarked) [4-I22, 2-chloro-1-[5-(4-methylphenyl)-3-(thiophen-2-yl)-4,5-dihydro-1H-pyrazol-1-yl]ethan-1-one], the viability at 48 h, 25 µM stood at 0.369%.

Take `CC(Cl)C(=O)N1C[C@@H]2CCC[C@@]2(c2nc(-c3cnccn3)no2)C1` (mixture of isomers) [7-C03, rac-1-[(3aR,6aR)-3a-[3-(pyrazin-2-yl)-1,2,4-oxadiazol-5-yl]-octahydrocyclopenta[c]pyrrol-2-yl]-2-chloropropan-1-one]: the viability at 48 h, 25 µM turned out to be 113%.

In the case of `CC(Cl)C(=O)Nc1ccc(OCc2ccccc2)cc1` (centres unmarked) [6-O13, N-[4-(benzyloxy)phenyl]-2-chloropropanamide], the viability at 48 h, 25 µM is 99.7%.

For the compound `C=CC(=O)N1CCC(C(=O)NCCC2(O)CCCOC2)CC1` (centres unmarked) [2-B04, N-[2-(3-hydroxyoxan-3-yl)ethyl]-1-(prop-2-enoyl)piperidine-4-carboxamide], the viability at 48 h, 25 µM came out at 70%.

On to `C=CC(=O)N1CCC(C(=O)NCc2ccc(Cl)cc2Cl)CC1` [1-E20, N-[(2,4-dichlorophenyl)methyl]-1-(prop-2-enoyl)piperidine-4-carboxamide], for which the viability at 48 h, 25 µM came out at 95.8%.

In the case of `O=C(CCl)NC(c1cc(F)ccc1F)C(F)F` (centres unmarked) [7-F22, 2-chloro-N-[1-(2,5-difluorophenyl)-2,2-difluoroethyl]acetamide], the viability at 48 h, 25 µM is 0.697%.

For `CC(Cl)C(=O)Nc1ccc2ccccc2c1` (centres unmarked) [5-H10, 2-chloro-N-(naphthalen-2-yl)propanamide], the viability at 48 h, 25 µM stood at 90.7%.

For the compound `CC(Cl)C(=O)c1ccc(NS(C)(=O)=O)cc1` (centres unmarked) [10-A08, N-[4-(2-chloropropanoyl)phenyl]methanesulfonamide], the viability at 48 h, 25 µM was found to be 93.7%.

Consider `N#CC(=Cc1ccc(N2CCOCC2)cc1)C(=O)NCC1CCCO1` (centres unmarked) [9-O10, 2-cyano-3-[4-(morpholin-4-yl)phenyl]-N-[(oxolan-2-yl)methyl]prop-2-enamide], for which the viability at 48 h, 25 µM was 120%.

On to `CC(NC(=O)C(C#N)=Cc1cc(F)ccc1F)c1ccccc1` (centres unmarked) [8-O06, 2-cyano-3-(2,5-difluorophenyl)-N-(1-phenylethyl)prop-2-enamide], for which the viability at 48 h, 25 µM was found to be 25.3%.

As to `N#CC(=Cc1cccc(F)c1)C(=O)NCCc1ccccc1` [8-J22, 2-cyano-3-(3-fluorophenyl)-N-(2-phenylethyl)prop-2-enamide], the viability at 48 h, 25 µM amounted to 103%.

Turning to `COc1ccc2ccccc2c1-c1cc(CNC(=O)C(C)Cl)on1` (centres unmarked) [7-E08, 2-chloro-N-{[3-(2-methoxynaphthalen-1-yl)-1,2-oxazol-5-yl]methyl}propanamide], the viability at 48 h, 25 µM was 87.9%.

Regarding `N#CC(=Cc1ccc(OC(F)F)cc1)C(=O)Nc1cccnc1` [9-K04, 2-cyano-3-[4-(difluoromethoxy)phenyl]-N-(pyridin-3-yl)prop-2-enamide], the viability at 48 h, 25 µM was determined as 115%.

Consider `CC(C)N1C(=O)C[C@H](NC(=O)CCl)[C@H]1c1ccc(Cl)c(F)c1` (racemic) [5-I11, rac-2-chloro-N-[(2R,3S)-2-(4-chloro-3-fluorophenyl)-5-oxo-1-(propan-2-yl)pyrrolidin-3-yl]acetamide], for which the viability at 48 h, 25 µM was determined as 0.807%.

Consider `O=C(CCl)Nc1ccc(Cl)c(C(F)(F)F)c1` [4-I09, 2-chloro-N-[4-chloro-3-(trifluoromethyl)phenyl]acetamide], for which the viability at 48 h, 25 µM was 0.299%.

As to `C=CC(=O)NC(C)c1nnc(-c2ccccc2F)s1` (centres unmarked) [3-N13, N-{1-[5-(2-fluorophenyl)-1,3,4-thiadiazol-2-yl]ethyl}prop-2-enamide], the viability at 48 h, 25 µM was determined as 76%.

`Cc1ccc(C=C(C#N)C(=O)NC(N)=O)o1` [8-D21, {2-cyano-2-[(5-methylfuran-2-yl)methylidene]acetyl}urea]: the viability at 48 h, 25 µM was determined as 101%.

Regarding `O=C(CCl)NCC1CN(Cc2ccccc2)CCO1` (centres unmarked) [4-H18, N-[(4-benzylmorpholin-2-yl)methyl]-2-chloroacetamide], the viability at 48 h, 25 µM amounted to 87.2%.

In the case of `C=CC(=O)NCc1ccsc1-n1cccc1` [1-K08, N-{[2-(1H-pyrrol-1-yl)thiophen-3-yl]methyl}prop-2-enamide], the viability at 48 h, 25 µM came to 153%.

For `CC(Cl)C(=O)N1CCC(NS(=O)(=O)c2cccs2)CC1` (centres unmarked) [7-L07, N-[1-(2-chloropropanoyl)piperidin-4-yl]thiophene-2-sulfonamide], the viability at 48 h, 25 µM stood at 99.7%.

Regarding `O=C(CCl)NC1C=C(c2ccc(Cl)cc2)CCC1` (centres unmarked) [7-P08, 2-chloro-N-[3-(4-chlorophenyl)cyclohex-2-en-1-yl]acetamide], the viability at 48 h, 25 µM was found to be 0.393%.

Consider `CC(CC#N)Sc1ccccc1NC(=O)CCl` (centres unmarked) [5-F14, 2-chloro-N-{2-[(1-cyanopropan-2-yl)sulfanyl]phenyl}acetamide], for which the viability at 48 h, 25 µM came to 1.02%.

On to `C=CC(=O)NCCCn1cnc2c1CCCC2` [3-K20, N-[3-(4,5,6,7-tetrahydro-1H-1,3-benzodiazol-1-yl)propyl]prop-2-enamide], for which the viability at 48 h, 25 µM turned out to be 101%.

For the compound `COc1ccc(NC(=O)CCl)cc1S(=O)(=O)N1CCCCC1` [4-B08, 2-chloro-N-[4-methoxy-3-(piperidine-1-sulfonyl)phenyl]acetamide], the viability at 48 h, 25 µM amounted to 0.454%.

`C=CC(=O)Nc1ccc(-n2ccccc2=O)cc1F` [3-J16, N-[2-fluoro-4-(2-oxo-1,2-dihydropyridin-1-yl)phenyl]prop-2-enamide]: the viability at 48 h, 25 µM is 101%.

As to `COc1ccc(C(=O)C(C)Cl)cc1` (centres unmarked) [10-H22, 2-chloro-1-(4-methoxyphenyl)propan-1-one], the viability at 48 h, 25 µM came out at 73.6%.
